Source: ChEMBL document CHEMBL4371007, “Biased Ligands of G Protein-Coupled Receptors (GPCRs): Structure-Functional Selectivity Relationships (SFSRs) and Therapeutic Potential” (J Med Chem, 2018)
Where a SMILES comes first, the peptide text is derived from it. Bridges are numbered along the chain shown (N, C = ends).

Columns and labels:
D(2) dopamine receptor [1] = biological target: T1, D(2) dopamine receptor (Homo sapiens, UniProt P14416); experiment: Agonist activity at dopamine D2 receptor (unknown origin) expressed in HEK293T cells co-expressing luciferase based cAMP biosensor assessed as inhibition of forskolin-mediated cAMP accumulation after 15 mins by microbeta luminescence counting assay; assay type: functional, cell-based
T1 sequence (P14416 whole entry, the tested form may be a part): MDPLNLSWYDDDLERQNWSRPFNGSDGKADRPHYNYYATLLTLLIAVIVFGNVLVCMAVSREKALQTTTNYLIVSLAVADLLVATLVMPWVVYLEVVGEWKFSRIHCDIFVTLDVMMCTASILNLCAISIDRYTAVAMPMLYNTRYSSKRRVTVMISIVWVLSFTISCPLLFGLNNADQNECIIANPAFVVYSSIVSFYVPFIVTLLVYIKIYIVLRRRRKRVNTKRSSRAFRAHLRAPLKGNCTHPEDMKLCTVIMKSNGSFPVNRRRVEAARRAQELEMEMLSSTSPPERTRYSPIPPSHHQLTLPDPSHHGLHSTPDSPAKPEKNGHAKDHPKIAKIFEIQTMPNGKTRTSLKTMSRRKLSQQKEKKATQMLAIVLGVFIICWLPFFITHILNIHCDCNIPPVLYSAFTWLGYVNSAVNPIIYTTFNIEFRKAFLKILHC

D(2) dopamine receptor [2] = biological target: T1, D(2) dopamine receptor; experiment: Ratio of EC50 for dopamine D2 receptor (unknown origin) expressed in HEK293T cells co-expressing luciferase based cAMP biosensor assessed as inhibition of forskolin-mediated cAMP accumulation to EC50 for human dopamine D2long receptor (unknown origin) expressed in HEK293T cells co-expressing TEV fused-beta-Arrestin2 and GRK2 assessed as increase in beta-arrestin-2 recruitment; assay type: functional, cell-based
D(2) dopamine receptor [3] = biological target: T1, D(2) dopamine receptor; experiment: Agonist activity at human dopamine D2long receptor (unknown origin) expressed in HEK293T cells co-expressing TEV fused-beta-Arrestin2 and GRK2 assessed as increase in beta-arrestin-2 recruitment after overnight incubation by Tango assay; assay type: cell-based
D(2) dopamine receptor [4] = biological target: T1, D(2) dopamine receptor; experiment: Agonist activity at dopamine D2 receptor (unknown origin) expressed in HEK293T cells co-expressing luciferase based cAMP biosensor assessed as inhibition of forskolin-mediated cAMP accumulation at 1 uM after 15 mins by microbeta luminescence counting assay relative to control; assay type: functional, cell-based
D(2) dopamine receptor [5] = biological target: T1, D(2) dopamine receptor; experiment: Agonist activity at human dopamine D2long receptor (unknown origin) expressed in HEK293T cells co-expressing TEV fused-beta-Arrestin2 and GRK2 assessed as increase in beta-arrestin-2 recruitment at 1 uM after overnight incubation by Tango assay relative to control; assay type: cell-based
[6] = biological target: T2, Glucagon-like peptide 1 receptor (Homo sapiens, UniProt P43220); experiment: Agonist activity at Rluc8 fused human GLP1 receptor expressed in HEK293 cells assessed co-expressing GFP-tagged beta-arrestin2 assessed as increase in beta-arrestin2 recruitment after 20 to 40 mins by BRET assay; assay type: cell-based
T2 sequence (P43220 whole entry, the tested form may be a part): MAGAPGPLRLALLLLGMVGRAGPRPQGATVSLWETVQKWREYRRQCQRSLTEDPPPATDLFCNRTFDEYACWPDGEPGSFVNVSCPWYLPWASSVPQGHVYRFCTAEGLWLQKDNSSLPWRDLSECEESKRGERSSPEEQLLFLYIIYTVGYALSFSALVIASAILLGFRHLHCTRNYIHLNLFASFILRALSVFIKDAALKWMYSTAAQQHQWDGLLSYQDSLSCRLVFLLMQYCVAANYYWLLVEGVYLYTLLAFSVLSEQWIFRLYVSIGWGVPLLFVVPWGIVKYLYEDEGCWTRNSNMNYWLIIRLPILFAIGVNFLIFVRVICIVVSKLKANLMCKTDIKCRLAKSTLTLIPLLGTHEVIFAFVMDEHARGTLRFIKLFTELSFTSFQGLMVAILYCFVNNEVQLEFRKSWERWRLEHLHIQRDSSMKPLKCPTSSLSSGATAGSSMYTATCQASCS

[7] = biological target: T2, Glucagon-like peptide 1 receptor; experiment: Agonist activity at Rluc8 fused human GLP1 receptor expressed in HEK293 cells assessed co-expressing GFP-tagged beta-arrestin1 assessed as increase in beta-arrestin1 recruitment after 20 to 40 mins by BRET assay; assay type: cell-based
[8] = biological target: T2, Glucagon-like peptide 1 receptor; experiment: Agonist activity at human GLP1 receptor expressed in HEK293 cells assessed as increase in cAMP accumulation after 24 hrs by luciferase reporter gene assay; assay type: functional, cell-based
[9] = biological target: T3, Metabotropic glutamate receptor 5 (Rattus norvegicus, UniProt P31424); experiment: Positive allosteric modulation of rat mGlu5 receptor expressed in HEK293 cells assessed as increase in calcium mobilization after 60 secs in presence of glutamate by Fluo-4 AM dye-based fluorescence assay; assay type: functional, cell-based
T3 sequence (P31424 whole entry): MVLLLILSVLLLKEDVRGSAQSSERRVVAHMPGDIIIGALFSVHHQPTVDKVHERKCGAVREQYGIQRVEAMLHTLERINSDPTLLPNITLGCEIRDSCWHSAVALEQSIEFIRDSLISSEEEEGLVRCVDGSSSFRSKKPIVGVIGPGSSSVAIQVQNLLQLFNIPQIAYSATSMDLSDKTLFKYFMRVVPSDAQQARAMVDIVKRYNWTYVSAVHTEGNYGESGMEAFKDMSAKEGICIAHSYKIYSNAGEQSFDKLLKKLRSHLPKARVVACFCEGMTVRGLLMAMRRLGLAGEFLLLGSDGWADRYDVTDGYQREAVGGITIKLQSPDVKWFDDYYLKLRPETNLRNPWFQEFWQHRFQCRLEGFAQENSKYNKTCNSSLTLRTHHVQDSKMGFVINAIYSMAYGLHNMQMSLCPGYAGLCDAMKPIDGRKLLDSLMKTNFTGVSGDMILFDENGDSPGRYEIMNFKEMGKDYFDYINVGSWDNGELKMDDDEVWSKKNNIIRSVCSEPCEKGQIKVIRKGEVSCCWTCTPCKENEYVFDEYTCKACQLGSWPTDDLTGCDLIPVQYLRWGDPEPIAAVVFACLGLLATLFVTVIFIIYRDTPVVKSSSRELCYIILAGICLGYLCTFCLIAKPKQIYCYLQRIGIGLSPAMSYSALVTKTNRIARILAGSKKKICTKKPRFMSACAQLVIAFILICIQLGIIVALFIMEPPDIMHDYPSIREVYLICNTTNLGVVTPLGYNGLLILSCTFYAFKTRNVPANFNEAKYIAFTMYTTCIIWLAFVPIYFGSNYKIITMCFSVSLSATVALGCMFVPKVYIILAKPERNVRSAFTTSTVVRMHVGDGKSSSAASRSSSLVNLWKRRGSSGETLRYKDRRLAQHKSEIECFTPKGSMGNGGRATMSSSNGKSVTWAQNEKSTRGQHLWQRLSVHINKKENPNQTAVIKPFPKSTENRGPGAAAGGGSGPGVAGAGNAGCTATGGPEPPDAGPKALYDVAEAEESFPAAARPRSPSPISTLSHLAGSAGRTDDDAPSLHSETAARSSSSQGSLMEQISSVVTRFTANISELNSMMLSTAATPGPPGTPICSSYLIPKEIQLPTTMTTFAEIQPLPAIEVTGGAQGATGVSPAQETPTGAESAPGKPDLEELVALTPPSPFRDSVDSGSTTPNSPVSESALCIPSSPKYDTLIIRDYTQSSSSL

[10] = biological target: T3, Metabotropic glutamate receptor 5; experiment: Positive allosteric modulation of rat mGlu5 receptor expressed in HEK293 cells assessed as increase in calcium mobilization; assay type: functional, cell-based
[11] = biological target: T4, Endothelin receptor type B (Homo sapiens) (UniProt P24530)
T4 sequence (whole entry): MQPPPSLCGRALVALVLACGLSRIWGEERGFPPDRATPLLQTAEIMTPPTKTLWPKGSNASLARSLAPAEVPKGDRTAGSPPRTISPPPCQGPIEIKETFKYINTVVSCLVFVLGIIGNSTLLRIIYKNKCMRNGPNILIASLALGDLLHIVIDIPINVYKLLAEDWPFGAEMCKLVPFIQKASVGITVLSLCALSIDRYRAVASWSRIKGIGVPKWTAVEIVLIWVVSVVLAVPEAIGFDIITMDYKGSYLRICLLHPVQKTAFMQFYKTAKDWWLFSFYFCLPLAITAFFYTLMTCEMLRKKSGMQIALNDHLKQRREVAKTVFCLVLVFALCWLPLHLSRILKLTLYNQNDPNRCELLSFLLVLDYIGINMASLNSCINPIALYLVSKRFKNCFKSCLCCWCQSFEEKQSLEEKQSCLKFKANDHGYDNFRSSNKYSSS

[12] = biological target: T5, Endothelin-1 receptor (Homo sapiens) (UniProt P25101)
T5 sequence (whole entry): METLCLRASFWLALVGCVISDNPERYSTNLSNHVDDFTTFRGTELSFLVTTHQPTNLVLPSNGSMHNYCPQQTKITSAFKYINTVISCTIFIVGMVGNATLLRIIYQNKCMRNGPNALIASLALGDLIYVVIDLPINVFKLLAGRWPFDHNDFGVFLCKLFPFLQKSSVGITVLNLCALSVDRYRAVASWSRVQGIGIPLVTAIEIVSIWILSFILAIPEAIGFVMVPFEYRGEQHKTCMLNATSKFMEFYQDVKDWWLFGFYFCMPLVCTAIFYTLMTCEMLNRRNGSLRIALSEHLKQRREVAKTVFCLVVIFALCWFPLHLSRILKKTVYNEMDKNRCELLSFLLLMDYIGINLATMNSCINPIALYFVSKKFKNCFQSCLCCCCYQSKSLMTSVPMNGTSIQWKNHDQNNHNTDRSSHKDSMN

Apelin receptor [13] = biological target: T6, Apelin receptor (Homo sapiens, UniProt P35414); experiment: Agonist activity at human APJ receptor assessed as increase in beta-arrestin recruitment
T6 sequence (P35414 whole entry): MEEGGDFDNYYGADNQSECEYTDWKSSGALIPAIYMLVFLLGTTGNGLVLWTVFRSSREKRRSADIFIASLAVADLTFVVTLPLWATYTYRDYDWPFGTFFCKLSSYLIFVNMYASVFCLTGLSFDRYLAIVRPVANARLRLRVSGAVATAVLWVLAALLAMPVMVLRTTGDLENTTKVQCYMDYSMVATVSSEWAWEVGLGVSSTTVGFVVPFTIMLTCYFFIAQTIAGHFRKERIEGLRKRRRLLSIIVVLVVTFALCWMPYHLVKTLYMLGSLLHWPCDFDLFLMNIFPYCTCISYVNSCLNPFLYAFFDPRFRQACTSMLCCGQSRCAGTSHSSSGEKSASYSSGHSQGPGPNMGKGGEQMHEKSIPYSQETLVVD

Apelin receptor [14] = biological target: T6, Apelin receptor; experiment: Induction of human APJ receptor internalization by cell based assay
Apelin receptor [15] = biological target: T6, Apelin receptor; experiment: Agonist activity at human APJ receptor by saphenous vein contraction assay
D(2) dopamine receptor [16] = biological target: T1, D(2) dopamine receptor; experiment: Agonist activity at dopamine D2 receptor (unknown origin) by cAMP accumulation assay relative to control; assay type: functional
D(2) dopamine receptor [17] = biological target: T1, D(2) dopamine receptor; experiment: Agonist activity at dopamine D2 receptor (unknown origin) assessed as increase in beta-arrestin-2 recruitment relative to control

Compound: Cc1cc2c(N3CCN(CCCCOc4ccc5c(c4)NC(=O)CC5)CC3)cccc2n1C
- EC50 (D(2) dopamine receptor [1]): 23 nM
- Ratio EC50 (D(2) dopamine receptor [2]): 20
- EC50 (D(2) dopamine receptor [3]): 2.9 nM
- Emax (D(2) dopamine receptor [4]): 60%
- Emax (D(2) dopamine receptor [5]): 78%

Compound: CC[C@H](C)[C@H](NC(=O)[C@H](Cc1ccccc1)NC(=O)[C@H](CCC(=O)O)NC(=O)[C@H]1CCC[C@@H]1NC(=O)[C@H](C)NC(=O)[C@H](C)NC(=O)[C@H](CCC(N)=O)NC(=O)[C@H]1CCC[C@@H]1NC(=O)[C@H](CCC(=O)O)NC(=O)[C@H](CC(C)C)NC(=O)[C@H](Cc1ccc(O)cc1)NC(=O)[C@H]1CCC[C@@H]1NC(=O)[C@H](CO)NC(=O)[C@@H](NC(=O)[C@H](CC(=O)O)NC(=O)[C@H](CO)NC(=O)[C@@H](NC(=O)[C@H](Cc1ccccc1)NC(=O)[C@@H](NC(=O)CNC(=O)[C@H](CCC(=O)O)NC(=O)[C@H](C)NC(=O)[C@@H](N)Cc1cnc[nH]1)[C@@H](C)O)[C@@H](C)O)C(C)C)C(=O)N[C@@H](C)C(=O)N[C@@H](Cc1c[nH]c2ccccc12)C(=O)N[C@@H](CC(C)C)C(=O)N[C@H](C(=O)N[C@@H](CCCCN)C(=O)NCC(=O)N[C@@H](CCCNC(=N)N)C(=O)NCC(N)=O)C(C)C
- EC50 [6]: 10 nM
- EC50 [7]: 20 nM
- EC50 [8]: 1 nM

Compound: O=C(Nc1ccc(Cl)cc1CN1C(=O)c2cccc(F)c2C1=O)c1ccccn1
- EC50 [9]: 214 nM

Compound: O=C(c1ccc(F)cc1)N1CCc2nc(COc3ccccc3)oc2C1
- EC50 [10]: 235 nM

Compound: COc1ccccc1Oc1c(NS(=O)(=O)c2ccc(C(C)(C)C)cc2)nc(-c2ncccn2)nc1OCCO
- pKb [11]: 6.15
- pKb [12]: 8.01

Compound: CSCC[C@H](NC(=O)[C@@H]1CCCN1C(=O)CNC(=O)[C@H](CCCCN)NC(=O)[C@H](Cc1cnc[nH]1)NC(=O)[C@@H]1CSSC[C@H](N)C(=O)N[C@@H](CCCNC(=N)N)C(=O)N2CCC[C@H]2C(=O)N[C@@H](CCCNC(=N)N)C(=O)N[C@@H](CC(C)C)C(=O)N1)C(=O)N1CCC[C@H]1C(=O)N[C@@H](Cc1ccccc1)C(=O)O (H-CRPRLCHKGPMPF-OH; disulfide 1-6)
- EC50 (Apelin receptor [13]): 2140 nM
- EC50 (Apelin receptor [14]): 692 nM
- EC50 (Apelin receptor [15]): 0.288 nM

Compound: CN(CCCCNC(=O)c1cc2ccccc2[nH]1)[C@@H]1Cc2cccc3[nH]c(=O)n(c23)C1
- Activity (D(2) dopamine receptor [16]): 96%
- Activity (D(2) dopamine receptor [17]): 66%
